Measured values from the supplement of paper PMC4862054.

Tests used:
Conditions in all cases: incubation time: 72 h
[1] = system: MDA-MB-453; assay: normalised viability (% of control), CellTiter-Blue; higher = more viable cells (about 100 = DMSO control)
Summary of the method: (§1)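 384-well plates were pre-loaded with compound in 5 µl medium before 20 µl of breast cancer cell suspension was seeded. Following 72 h incubation, 2.5 µl CellTiter-Blue reagent was added for 2 h at 37 °C. Fluorescence was read at 560/590 nm and plates were normalised to vehicle (100) and a positive kill control (0), checked by Z'-factor. Normalised viability is reported at a single listed concentration of the series.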

[2] = system: CAL-85-1; assay: as above
Summary of the method: as §1

[3] = system: MDA-MB-231; assay: as above
Summary of the method: as §1

[4] = system: BT-474; assay: as above
Summary of the method: as §1

[5] = system: HCC1937; assay: as above
Summary of the method: as §1

[6] = system: BT-549; assay: as above
Summary of the method: as §1

[7] = system: DU-4475; assay: as above
Summary of the method: as §1

[8] = system: MFM-223; assay: as above
Summary of the method: as §1

[9] = system: HDQ-P1; assay: as above
Summary of the method: as §1

[10] = system: HCC1143; assay: as above
Summary of the method: as §1

[11] = system: SK-BR-3; assay: as above
Summary of the method: as §1

[12] = system: MDA-MB-468; assay: as above
Summary of the method: as §1

[13] = system: CAL-148; assay: as above
Summary of the method: as §1

[14] = system: CAL-51; assay: as above
Summary of the method: as §1

[15] = system: HCC1599; assay: as above
Summary of the method: as §1

[16] = system: CAL-120; assay: as above
Summary of the method: as §1

[17] = system: MDA-MB-436; assay: as above
Summary of the method: as §1

[18] = system: Hs578T; assay: as above
Summary of the method: as §1

[19] = system: CAL-85-1; assay: drug sensitivity score (DSS), CellTox Green (DSS (AUC-based score)); higher = stronger drug effect (viability inhibition or cytotoxicity); extreme values may be limits of the assay
Summary of the method: (§2)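 Breast cancer cell lines, seeded as 20 µl suspension, were incubated 72 h with compound in 384-well plates at 5 concentrations in 10-fold steps over a 10,000-fold range set for each compound. Fluorescence from CellTox Green was read at 485/520 nm before CellTiter-Glo luminescence, which was read after 10 min at room temperature. Every plate was normalised to 0.1 % DMSO and a positive kill control, and the drug sensitivity score was taken from the area under the fitted dose-response curve.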

[20] = system: MDA-MB-231; assay: as above
Summary of the method: as §2

[21] = system: BT-474; assay: as above
Summary of the method: as §2

[22] = system: HCC1937; assay: as above
Summary of the method: as §2

[23] = system: HCC1143; assay: as above
Summary of the method: as §2

[24] = system: CAL-148; assay: as above
Summary of the method: as §2

[25] = system: Hs578T; assay: as above
Summary of the method: as §2

[26] = system: MDA-MB-453; assay: normalised viability (% of control), CellTiter-Blue; higher = more viable cells (about 100 = DMSO control); remark: listed apart in the source
Summary of the method: as §1

[27] = system: BT-549; assay: as above; remark: listed apart in the source
Summary of the method: as §1

[28] = system: DU-4475; assay: as above; remark: listed apart in the source
Summary of the method: as §1

[29] = system: MDA-MB-436; assay: as above; remark: listed apart in the source
Summary of the method: as §1

C[C@]12CC[C@@H]3c4ccc(O)cc4C[C@@H](CCCCCCCCC[S+]([O-])CCCC(F)(F)C(F)(F)F)[C@H]3[C@@H]1CC[C@@H]2O (some centres not stated) [Fulvestrant]
Conditions | normalised viability [%]
[1], 10 nM | 81.3
[2], 10 nM | 95.8
[3], 100 nM | 79.9
[4], 100 nM | 89.2
[5], 100 nM | 91.9
[6], 100 nM | 94.8
[7], 10 nM | 105
[8], 100 nM | 70.4
[9], 10 nM | 93.3
[10], 100 nM | 77.8
[11], 100 nM | 94.3
[12], 100 nM | 87.2
[13], 10 nM | 86.5
[14], 10 nM | 112
[15], 100 nM | 113
[16], 100 nM | 78.5
[17], 100 nM | 103
[18], 100 nM | 85.5
[26], 3 nM | 108
[26], 30 nM | 81.1
[26], 100 nM | 93.7
[27], 10 nM | 74.7
[27], 1000 nM | 86.5
[27], 10000 nM | 74.8
[28], 3 nM | 91.6
[28], 30 nM | 78
[28], 100 nM | 91.5
[29], 10 nM | 94.4
[29], 1000 nM | 97.5
[29], 10000 nM | 90.6

Conditions | drug sensitivity score
[19] | 0
[20] | 0
[21] | 0
[22] | 0
[23] | 0
[24] | 0
[25] | 0

Clc1ccc(Nc2nnc(Cc3ccncc3)c3ccccc23)cc1 [Vatalanib]
Conditions | normalised viability [%]
[1], 10 nM | 111
[2], 10 nM | 97.3
[3], 100 nM | 89.1
[4], 100 nM | 100
[5], 100 nM | 112
[6], 100 nM | 81.4
[7], 10 nM | 97.9
[8], 100 nM | 97.7
[9], 10 nM | 105
[10], 100 nM | 78.9
[11], 100 nM | 66.5
[12], 100 nM | 100
[13], 10 nM | 84.4
[14], 10 nM | 101
[15], 100 nM | 109
[16], 100 nM | 79.7
[17], 100 nM | 119
[18], 100 nM | 100
[26], 3 nM | 107
[26], 30 nM | 112
[26], 100 nM | 112
[27], 10 nM | 87.3
[27], 1000 nM | 88.2
[27], 10000 nM | 85.9
[28], 3 nM | 98.2
[28], 30 nM | 100
[28], 100 nM | 99
[29], 10 nM | 106
[29], 1000 nM | 97.5
[29], 10000 nM | 85.2

Conditions | drug sensitivity score
[19] | 0
[20] | 0
[21] | 0
[22] | 0
[23] | 0
[24] | 1.43
[25] | 0

CN(N=O)C(=O)N[C@@H](C=O)[C@@H](O)[C@H](O)[C@H](O)CO [Streptozocin]
Conditions | normalised viability [%]
[1], 10 nM | 112
[2], 10 nM | 105
[3], 100 nM | 101
[4], 100 nM | 104
[5], 100 nM | 90.7
[6], 100 nM | 104
[7], 10 nM | 99.1
[8], 100 nM | 90.6
[9], 10 nM | 106
[10], 100 nM | 101
[11], 100 nM | 95.7
[12], 100 nM | 106
[13], 10 nM | 99.6
[14], 10 nM | 109
[15], 100 nM | 101
[16], 100 nM | 105
[17], 100 nM | 101
[18], 100 nM | 102
[26], 3 nM | 116
[26], 30 nM | 89.4
[26], 100 nM | 93
[27], 10 nM | 93
[27], 1000 nM | 103
[27], 10000 nM | 83.7
[28], 3 nM | 101
[28], 30 nM | 96.5
[28], 100 nM | 103
[29], 10 nM | 110
[29], 1000 nM | 88.1
[29], 10000 nM | 90.6

Conditions | drug sensitivity score
[19] | 0
[20] | 0
[21] | 0
[22] | 0
[23] | 0
[24] | 0
[25] | 0

Cc1ccc(C(=O)N(CCCN)[C@@H](c2oc3cc(Cl)ccc3c(=O)c2Cc2ccccc2)C(C)C)cc1
Conditions | normalised viability [%]
[1], 1 nM | 112
[2], 1 nM | 98.7
[3], 10 nM | 27.6
[4], 10 nM | 30.3
[5], 10 nM | 25.2
[6], 10 nM | 27.4
[7], 1 nM | 105
[8], 10 nM | 41.6
[9], 1 nM | 105
[10], 10 nM | 46.6
[11], 10 nM | 18
[12], 10 nM | 29.1
[13], 1 nM | 92.5
[14], 1 nM | 103
[15], 10 nM | 80.5
[16], 10 nM | 31.1
[17], 10 nM | 55.9
[18], 10 nM | 19.5
[26], 0.3 nM | 123
[26], 3 nM | 103
[26], 10 nM | 23.8
[27], 1 nM | 87.3
[27], 100 nM | 25.1
[27], 1000 nM | 34.8
[28], 0.3 nM | 91.4
[28], 3 nM | 108
[28], 10 nM | 52.9
[29], 1 nM | 97.8
[29], 100 nM | 60.6
[29], 1000 nM | 59.2

Conditions | drug sensitivity score
[19] | 0
[20] | 0
[21] | 0
[22] | 0
[23] | 0
[24] | 0
[25] | 2.03

Cn1c(Nc2ccc(C(F)(F)F)cc2)nc2cc(Oc3ccnc(-c4ncc(C(F)(F)F)[nH]4)c3)ccc21 [RAF265]
Conditions | normalised viability [%]
[1], 1 nM | 100
[2], 1 nM | 92
[3], 10 nM | 100
[4], 10 nM | 103
[5], 10 nM | 93.2
[6], 10 nM | 84.1
[7], 1 nM | 92.1
[8], 10 nM | 88
[9], 1 nM | 109
[10], 10 nM | 77.8
[11], 10 nM | 102
[12], 10 nM | 104
[13], 1 nM | 94
[14], 1 nM | 92.9
[15], 10 nM | 97.2
[16], 10 nM | 82.2
[17], 10 nM | 98.9
[18], 10 nM | 89.7
[26], 0.3 nM | 99.2
[26], 3 nM | 109
[26], 10 nM | 98.3
[27], 1 nM | 87.3
[27], 100 nM | 80.8
[27], 1000 nM | 78.5
[28], 0.3 nM | 102
[28], 3 nM | 95.6
[28], 10 nM | 116
[29], 1 nM | 120
[29], 100 nM | 79.6
[29], 1000 nM | 83.6

Conditions | drug sensitivity score
[19] | 4.33
[20] | 0
[21] | 0
[22] | 0
[23] | 0
[24] | 0
[25] | 0

N.N.[Cl][Pt][Cl] [Cisplatin]
Conditions | normalised viability [%]
[1], 10 nM | 111
[2], 10 nM | 104
[3], 100 nM | 96.4
[4], 100 nM | 127
[5], 100 nM | 95.1
[6], 100 nM | 105
[7], 10 nM | 103
[8], 100 nM | 93.7
[9], 10 nM | 130
[10], 100 nM | 103
[11], 100 nM | 90.5
[12], 100 nM | 99.1
[13], 10 nM | 94.8
[14], 10 nM | 108
[15], 100 nM | 95.4
[16], 100 nM | 86.5
[17], 100 nM | 89.8
[18], 100 nM | 106
[26], 3 nM | 124
[26], 30 nM | 117
[26], 100 nM | 110
[27], 10 nM | 87.5
[27], 1000 nM | 87.6
[27], 10000 nM | 88.8
[28], 3 nM | 105
[28], 30 nM | 116
[28], 100 nM | 88.8
[29], 10 nM | 102
[29], 1000 nM | 87.1
[29], 10000 nM | 94.8

Conditions | drug sensitivity score
[19] | 0
[20] | 0
[21] | 0
[22] | 0
[23] | 0
[24] | 0
[25] | 0
